Data set [1] is described as follows: Pharmacokinetics in Sprague Dawley rats (Table 4). Format: in vivo. Conditions: rat; for MRT inf: read-out: MRT0-∞. An excerpt: Compound D1 was formulated in 0.3% DMA/1% SOLUTOL®/98.7% saline. Compound D6 was formulated in 0.5% DMA/1% SOLUTOL®/94.5% 0.01N HCl in saline/4% NaOH (pH 4-5).
A short description of data set [2]: Pharmacokinetics in Beagle dogs (Table 5). It counts as in vivo. Conditions: dog; for MRT inf: read-out: MRT0-∞. Here is the method: For pharmacokinetic evaluation, 3 male Beagle dogs were intravenously (IV) dosed (1 mg/kg body weight) and 3 male Beagle dogs were orally (PO) dosed (10 mg/kg body weight) with a test compound. Blood (approximately 1.0 mL) was collected via femoral vein into tubes containing K3EDTA anticoagulant at 0, 0.017, 0.083, 0.5, 1, 2, 4, 6, 8, and 24 hours post-dosing. Plasma samples were analyzed by LC-MS/MS. The analytical results were confirmed using quality control samples for intra-assay variation. The accuracy of >66% of the quality control samples was between 80-120% of the known value(s). A standard set of pharmacokinetic parameters were generated from concentration data including Area Under the Curve (AUC0-t and AUC0-inf), elimination half-lives, clearances, volume of distribution and bioavailabilities (based on AUC0-t), maximum plasma concentration (C0; Cmax), and time to reach maximum plasma concentration (Tmax).

Data set [3] relates to CSM14.1 cells. Kind of data set: ER stress cell survival assay (thapsigargin, […]-GLO). Format: cell-based. Conditions: dose-response. As to the method: CSM14.1 cells were maintained in Complete Medium at 32° C.; wherein the Complete Medium contained Dulbecco's modified eagle medium (DMEM) with 10% fetal bovine serum (FSB), 1% L-glutamine, 100 IU/mL penicillin, and 100 μg/mL streptomycin. The cells were recovered from cultures by trypsinization and then seeded in 384 well plates (Greiner #781098) at a concentration of 1,000 cells/well in 20 μL of DMEM Assay Medium, wherein the DMEM Assay Medium contained 2% FBS, 100 IU/mL penicillin, and 100 μg/mL streptomycin. Seeding was performed using a MultiDrop Combi reagent broadcaster. The plates were incubated overnight at 32° C.
A test compound was prepared by 2-fold serial dilution in 100% DMSO using a BIOMEK® 2000 liquid handler (Beckman Coulter). A dose-response curve containing 10 concentrations of the test compound was obtained. Using a BIOMEK® FX liquid handler (Beckman Coulter), 2.5 μL of the test compound was transferred from the 100% DMSO serial dilution plate to an intermediate plate containing 47.5 μL of DMEM Assay Medium containing 2% FBS, 100 IU/mL penicillin, and 100 μg/mL streptomycin and mixed. To reduce or eliminate the interference from the compound's precipitation, 6 μL of the diluted compound was immediately transferred to the assay plate to achieve a high compound concentration of 100 μM in 99% DMEM Assay Medium and 1% DMSO. After the assay plates were incubated for 2 hrs, 4 μL of 112.5 μM thapsigargin (TG) (DMSO stock diluted into Assay TC Medium) was dispensed into each testing well with a MultiDrop Combi reagent broadcaster for a final concentration of about 15 μM TG. The tissue culture media (4 μL) containing vehicle only was transferred manually to each control cell using a 16 channel electronic pipette. […] High luminescence indicates cell survival.
Alternatively, a test compound was tested at a single compound concentration (e.g., 2 μM) to determine the effect of the compound on cell survival in comparison with vehicle.

Data set [4] has as its system BT474 Cells. The experiment in a line: In vitro anticancer activity, monolayers (2D) and spheroids (3D), BT474. It counts as cell-based. Conditions: Homo sapiens. Here is the method: (§1) The anticancer activity of a test compound was determined in vitro using mammalian tumor cells that grew as monolayers and spheroids. Spheroids represent the three-dimensional growth and organization of solid tumors, and thus are an intermediate model between monolayers of cells in culture and tumors in vivo. The cancer cell line tested was a breast cancer cell line, BT474. Normal breast tissue cells (MCF10A) were used as a control. The viability/proliferation of the cells were measured using […]-GLO® reagent.

The subject of data set [5] is MCF10A Cells. Kind of data set: In vitro viability, monolayers (2D) and spheroids (3D), normal breast tissue cells. Conditions: Homo sapiens, MCF-10A. Format: cell-based. As to the method: as §1
Data set [6] relates to human foreskin fibroblast (HFF) cells. Kind of data set: Toxicity in human foreskin fibroblast cells. Conditions: 100 μM. It counts as cell-based.
The test system of data set [7] is 6-OHDA lesioned Wistar rats. Kind of data set: Rat unilateral 6-OHDA model of Parkinson's disease, cylinder test. It counts as in vivo. Conditions: D11, L-DOPA 8 mg/kg with benserazide 12.5 mg/kg IP once; 6-OHDA/Vehicle 23.17±6.45. As to the method:
(§2) Fifty adult male Wistar rats were used. The rats from different groups (G1 to G5) were randomized. At the beginning of the study, the rats were about 5 weeks old and naive to previous administration of any drug.
(§3) A stereotaxic injection of 6-OHDA (G2 to G5) or saline (G1: sham group) was performed to induce a unilateral dopaminergic lesion on day 0 (D0). Surgery was performed on D0 under ketamine (50 mg/kg) and xylazine (10 mg/kg). The rats of G2 to G5 received a unilateral injection of 6-OHDA (6 μL) in the left substantia nigra pars compacta. Jouve et al., J. Neurosci. 2010, 30, 9919-9928. The rats of the G1 sham group were injected with saline. During surgery, local analgesia was achieved using subcutaneous injections of lidocaine. At the end of surgery, the rats were treated with buprenorphine (0.05 mg/kg, S.C.).
The cylinder test was performed only on D11, after completion of the IT and stepping tests, and 1.5 hours after the rats were dosed. The rats were placed in a Plexiglas cylinder and immediately videotaped for 15 min. During this time, the number of contacts made on the cylinder wall with the ipsilateral, contralateral, and two paws simultaneously (double contacts) were recorded and then expressed as a percentage of the total number of contacts. Lundblad et al., Eur. J. Neurosci. 2002, 15, 120-132; Jouve et al., J. Neurosci. 2010, 30, 9919-9928. […]

Data set [8] relates to 6-OHDA lesioned Wistar rats. Kind of data set: Rat unilateral 6-OHDA model of Parkinson's disease, initiation time (IT) test. It counts as in vivo. Conditions: D11, L-DOPA 8 mg/kg with benserazide 12.5 mg/kg IP once; 6-OHDA/Vehicle 37.88±6.10 sec. As to the method:
as §2, §3
The IT test was performed both before the 6-OHDA lesion induction on D0 and on day 11 (D11) after the 6-OHDA lesion induction. Around six days (D−6) before the 6-OHDA lesion induction, the IT test was performed eight consecutive times for each limb of each rat to obtain baseline values. On D11, the IT test was performed one hour after the rats were dosed. For every test, only one of the two forelimbs of each rat was left free to move and the time that is necessary to initiate the movement toward a plane surface was recorded using 180 sec as break-off point. […]

Data set [9] concerns 6-OHDA lesioned Wistar rats. Kind of data set: Rat unilateral 6-OHDA model of Parkinson's disease, stepping test. Conditions: D11, L-DOPA 8 mg/kg with benserazide 12.5 mg/kg IP once; 6-OHDA/Vehicle 1.19±0.24 steps. Format: in vivo. As to the method: as §2, §3
The stepping test was performed after IT test, both before the 6-OHDA lesion induction on D0 and on D11. Around D−6, the stepping test was performed eight consecutive times for the right paw of each animal to obtain baseline values. On D11, the stepping test was performed one hour after the rats were dosed. Each rat was hold by an experimenter and only one of the two forelimbs was left free to move above a plane surface and the other was held with the paw touching the table. The rats were then to be moved slowly forward by the experimenter. The number of adjusting steps was countered for the right paw. Olsson et al., J. Neurosci. 1995, 15, 3863-3875.
L-DOPA and benserazide (a peripheric DOPA decarboxylase inhibitor) were prepared together as a single solution containing 0.9% NaCl and 0.1% ascorbic acid.
All the dosings were given via the IP route, once daily, Sunday excluded.

[10] abbreviates: Sprague Dawley, in vivo, IV (2 mg/kg).
Setting [11] is: Sprague Dawley, in vivo, PO (10 mg/kg).
Where [12] appears, read: male, Beagle, plasma, IV (1 mg/kg).
Where [13] appears, read: male, Beagle, plasma, PO (10 mg/kg).

Read-outs that look alike come from different tables or passages of the source. Bounds are passed on as bounds.

Consider `O=C(c1ccc(N2CCCC2)c([N+](=O)[O-])c1)N1CCN(c2ccnc3cc(Cl)ccc23)CC1` [Compound D6, (4-(7-Chloroquinolin-4-yl)piperazin-1-yl)(3-nitro-4-(pyrrolidin-1-yl)phenyl)methanone], for which the AUC(0-inf) in data set [1] (setting [10]) was found to be 8640 ± 650 ng·h/mL; in data set [1] (setting [11]), 21200 ± 1940 ng·h/mL; in data set [2] (setting [12]) it was 14300 ± 2220 ng·h/mL; in [2] (setting [13]) it was 114000 ± 15500 ng·h/mL. Further, the AUC(0-t) amounted to 8600 ± 659 ng·h/mL in [1] (setting [10]), 19900 ± 1510 ng·h/mL in [1] (setting [11]), 13900 ± 2100 ng·h/mL in data set [2] (setting [12]) and 110000 ± 15500 ng·h/mL in [2] (setting [13]). Besides, the Cmax in data set [1] (setting [10]) turned out to be 39.7 ± 1.06 µM; in [1] (setting [11]), 13 ± 3.56 µM; in data set [2] (setting [12]) it was 12.7 ± 2.4 µM; in data set [2] (setting [13]) it was 26.5 ± 1.9 µM. Further, the Tmax in data set [1] (setting [10]) turned out to be 0.02 h; in data set [1] (setting [11]) it was 0.42 ± 0.14 h; in data set [2] (setting [12]), 0.02 h; in data set [2] (setting [13]), 0.83 ± 0.29 h. In addition, the clearance is 3.83 mL/min/kg in data set [1] (setting [10]) and 1.17 mL/min/kg in data set [2] (setting [12]). Besides, the half-life is 0.98 ± 0.13 h in data set [1] (setting [10]), 1.79 ± 0.39 h in data set [1] (setting [11]), 4.8 ± 0.4 h in [2] (setting [12]) and 4.8 ± 0.6 h in data set [2] (setting [13]). For the same compound, the MRT inf in [1] (setting [10]) turned out to be 0.98 ± 0.09 h; in [1] (setting [11]), 2.96 ± 0.66 h; in [2] (setting [12]), 5.6 ± 0.4 h; in data set [2] (setting [13]) it was 7 ± 0.3 h. Besides, the Vd in data set [1] (Sprague Dawley, in vivo, IV (2 mg/kg), read-out: Vz) was 0.33 ± 0.03 L/kg; in data set [2] (male, Beagle, plasma, IV (1 mg/kg), read-out: Vz) it was 0.49 ± 0.04 L/kg. The F in data set [1] (PO (10 mg/kg) vs IV (2 mg/kg)) amounted to 44%; in [2] (PO (10 mg/kg) vs IV (1 mg/kg), based on AUC0-t), 82%. For the same compound, the EC50 in data set [3] is < 20 µM. For the same compound, the concentration for half-maximal inhibition (IC50) was 5 µM in data set [4] (BT-474, monolayers (2D), read-out: IC50 (2D)); 8 µM in data set [4] (BT-474, spheroids (3D), read-out: IC50 (3D)); > 50 µM in data set [5] (monolayers (2D), read-out: IC50 (2D)); > 50 µM in data set [5] (spheroids (3D), read-out: IC50 (3D)). Moreover, in data set [6], the “toxicity in HFF cells” value is “no toxicity”.
Regarding `N[C@@H](Cc1ccc(O)c(O)c1)C(=O)O` [L-DOPA, reference compound], in [7], the “percentage of double contacts” value was 46.67±4.60 double contacts. Besides, the initiation time in data set [8] was determined as 1.28 ± 0.21 s. In addition, in data set [9], the “number of adjusting steps” value is 10.05±0.56 steps.

The AUC(0-inf) is total exposure, with the tail of the curve extrapolated. A lower AUC(0-inf) goes with less exposure. In general, AUC(0-t) refers to exposure summed from dosing to a finite time, without extrapolation to infinity. Read a low AUC(0-t) as less exposure. A word on the Cmax: it is the peak of the concentration-time curve. Usually Tmax stands for the time at which the peak concentration occurs. By clearance is commonly meant the volume of plasma or blood freed of the substance per unit of time. A high value points to a high capacity for elimination. The half-life is the time in which the quantity being followed falls by half. The low end stands for fast loss, the high end for slow loss. Broadly, the EC50 is the concentration needed to bring the measured effect to its halfway point. Read a low EC50 as a more potent agent. As a reminder, the IC50 is the point on the concentration scale where inhibition reaches its midpoint.

The values above are taken from patent publication US20170281611A1, “QUINOLINES AND THEIR USE FOR TREATING ENDOPLASMIC RETICULUM STRESS-CAUSED DISEASES” (EIGER BIOPHARMACEUTICALS, INC., priority 2014, published 2017).
